A value given as a limit tells only on which side of the number the result lay.

In this test the target is T1, human Werner helicase (WRN, Uniprot Q14191, amino acids 517-1235 with L1074F point mutation; WRN-BV08) (Homo sapiens, UniProt Q14191, L1074F).
T1 construct: Uniprot Q14191, amino acids 517-1235 with L1074F point mutation; 8xHis (C, cleaved yes); TEV cleavage site (ENLYFQG) (C, cleaved yes); made in house; host or cells: Sf9 insect cells (baculovirus, pFastBac)
T1 sequence (Q14191 with tags, fused parts or gaps L1074F): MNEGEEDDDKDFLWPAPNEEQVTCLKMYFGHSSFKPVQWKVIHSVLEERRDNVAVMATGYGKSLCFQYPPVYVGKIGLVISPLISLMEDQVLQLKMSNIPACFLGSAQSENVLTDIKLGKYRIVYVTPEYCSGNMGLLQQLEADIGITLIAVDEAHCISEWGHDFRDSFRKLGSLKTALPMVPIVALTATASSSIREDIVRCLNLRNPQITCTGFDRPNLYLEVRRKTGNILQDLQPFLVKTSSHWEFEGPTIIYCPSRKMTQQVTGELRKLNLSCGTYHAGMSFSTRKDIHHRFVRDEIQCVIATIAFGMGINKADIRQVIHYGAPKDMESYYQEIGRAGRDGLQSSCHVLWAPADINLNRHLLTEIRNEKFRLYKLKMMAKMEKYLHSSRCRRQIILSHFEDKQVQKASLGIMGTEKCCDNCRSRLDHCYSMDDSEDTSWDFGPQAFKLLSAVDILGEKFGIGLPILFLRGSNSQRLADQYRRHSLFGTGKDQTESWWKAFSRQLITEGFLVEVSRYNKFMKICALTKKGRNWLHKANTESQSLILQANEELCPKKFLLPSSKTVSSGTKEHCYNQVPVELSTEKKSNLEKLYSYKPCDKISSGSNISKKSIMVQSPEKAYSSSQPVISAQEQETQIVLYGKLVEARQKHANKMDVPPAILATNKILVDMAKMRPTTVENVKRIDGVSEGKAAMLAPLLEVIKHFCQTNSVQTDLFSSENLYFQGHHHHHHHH
Put plainly: WRN (BV08) ADP-Glo assay. It counts as biochemical. To be noted: WRN-BV08 (aa 517-1235, L1074F); read-out: ADP-Glo_hWRN_IC50. The text has this: Example 2: WRN (BV08) ADP-Glo Assay Protocol
Bovine skin gelatin (BSG), dimethyl sulfoxide (DMSO), Pluronic F-127 and tris(2-carboxyethyl)phosphine hydrochloride solution (TCEP) were purchased from Sigma-Aldrich (St. Louis, MO) at the highest level of purity possible. Bicine buffer solution was purchased from Alfa Aesar (Tewksbury, MA) and compound NSC-617145 was purchased from Tocris (Minneapolis, MN). DNA duplex was synthesized at BGI (Shenzhen, China) and was composed of strand 1 with the sequence 5′-[…]-3′ (SEQ ID NO.: 1) and strand 2 with the sequence 5′-[…]-3′ (SEQ ID NO.: 2). DNA strands were annealed by heating to 95° C. for 5 minutes followed by slow cooling to room temperature. Compounds in 100% DMSO ([…]) were spotted into a 384-well white polystyrene Optiplate-384 (Perkin Elmer; Waltham, MA) assay plate using a LabCyte Echo 550 (Agilent; Santa Clara, CA). DMSO ([…]) was added to columns 12, rows A-H and column 24, rows I-P for the maximum signal control. Compound NSC-617145 ([…]) was added to columns 12, rows I-P and 24, rows A-H for the minimum signal control (100% inhibition). Compounds/DMSO were preincubated for 15 minutes at 25° C. with […] 2×WRN (BV08), prepared as described below, in assay buffer containing 20 mM Bicine (pH=7.5), 1 mM MgCl2, 10 mM KCl, 0.1% Pluronic F-127, 0.005% BSG, 1 mM TCEP. The reaction was initiated by the addition of […] 2× substrate mixture in assay buffer and incubated for 60 minutes at 25° C. The final concentrations of the assay components were 0.15 nM WRN, […], and 0.1 nM DNA duplex. The final DMSO concentration was 1% and the reference compound concentration (NSC-617145) used for the minimal signal control was […]. The reaction was stopped by the addition of the ADP-Glo Kit components (Promega; Madison, WI) as directed and the relative luminescence units (RLU) were read on an Envision 2104 (Perkin Elmer; Waltham, MA).
% Inhibition Calculation:
Where RLU=relative luminescence units, sample=signal in sample well, and MIN and MAX are the respective minimum and maximum signal controls.
Four-Parameter IC50 Fit Equation:
Where top and bottom are normally allowed to float but may be fixed at 100 or 0 respectively in a 3-parameter fit. Y is the % inhibition and X is the compound concentration.
Molecular Biology and virus production. The DNA encoding human Werner helicase (Uniprot Q14191, amino acids 517-1235 with L1074F point mutation) was generated with codon-optimization for […] expression and subcloned into the pFastBac vector with a TEV cleavable 8×His tag (SEQ ID NO: 5) (WRN—BV08). The baculovirus from the expression plasmid WRN—BV08 was generated from transfection and amplification following the manufacturer's instructions.
Sf9 cells grown in SF900II media were infected with 1:200 WRN—BV08 P2 virus and incubated for protein expression for 72 h at 27° C. The WRN protein was purified using the following protocol. The cell pellets were thawed and resuspended in buffer A (50 mM Tris, pH 7.5, 500 mM NaCl, 1 mM TCEP, 10% Glycerol) supplemented with 0.5% CHAPS, 1 mM PMSF, 1 μg/ml Leupeptin, 1 μg/ml Pepstatin, and the Pierce Universal Nuclease and cocktail tablet. Cleared lysates were loaded onto a Ni Sepharose™ excel column and washed with buffer A and bound protein was eluted with buffer A supplemented with 300 mM imidazole. The eluted protein was dialyzed against buffer A and digested by His-tagged TEV (1:5 ratio) overnight at 4° C. ZnCl2 was added into the sample at final 15 μM before loading onto a second Ni Sepharose™ excel column. Untagged WRN protein was eluted from the column with buffer A supplemented with 20 mM imidazole, dialyzed overnight into buffer B (50 mM Tris, pH 7.5, 1 mM TCEP, 10% Glycerol) supplemented with 150 mM NaCl and loaded onto a Heparin column. Proteins were eluted with a step gradient of buffer B supplemented with 150 mM, 200 mM, 300 mM and 500 mM NaCl. […]
(In ADP-Glo the light output rises with the ADP produced.)
Consider `CCc1c(N2CCN(C(=O)c3ncnc(C)c3O)[C@H]3CCC[C@@H]32)c(=O)c2nn(-c3ccnc(OC)c3)nc2n1CC(=O)NC12CC(C3CC3)(C1)C2` [I-54, 2-{6-[(4aS,7aS)-4-(5-hydroxy-6-methylpyrimidine-4-carbonyl)-octahydro-1H-cyclopenta[b]pyrazin-1-yl]-5-ethyl-2-(2-methoxypyridin-4-yl)-7-oxo-2H,4H,7H-[1,2,3]triazolo[4,5-b]pyridin-4-yl}-N-{3-cyclopropylbicyclo[1.1.1]pentan-1-yl}acetamide], for which the IC50 was 5 to 50 nM.
With `CCc1c(N2CCN(C(=O)c3ncnc(C)c3O)[C@H]3CC[C@@H]32)c(=O)c2nn(C3=CCN(CC(F)F)CC3)nc2n1CC(=O)NC12CC(C3CC3)(C1)C2` [I-174, N-{3-cyclopropylbicyclo[1.1.1]pentan-1-yl}-2-{2-[1-(2,2-difluoroethyl)-1,2,3,6-tetrahydropyridin-4-yl]-5-ethyl-6-[(1S,6S)-5-(5-hydroxy-6-methylpyrimidine-4-carbonyl)-2,5-diazabicyclo[4.2.0]octan-2-yl]-7-oxo-2H,4H,7H-[1,2,3]triazolo[4,5-b]pyridin-4-yl}acetamide] the figure was 5 to 50 nM; with `CCc1c(N2CCN(C(=O)c3ncnc(C)c3O)[C@H]3CC[C@@H]32)c(=O)c2nn(C3=CCC(OC)CC3)nc2n1CC(=O)NC12CC(C3CC3)(C1)C2` (stereo partly drawn) [I-163, N-{3-cyclopropylbicyclo[1.1.1]pentan-1-yl}-2-{5-ethyl-6-[(1S,6S)-5-(5-hydroxy-6-methylpyrimidine-4-carbonyl)-2,5-diazabicyclo[4.2.0]octan-2-yl]-2-(4-methoxycyclohex-1-en-1-yl)-7-oxo-2H,4H,7H-[1,2,3]triazolo[4,5-b]pyridin-4-yl}acetamide], 5 to 50 nM.
With `CCc1c(N2CCN(C(=O)c3ncnc(C)c3O)[C@H]3CC[C@@H]32)c(=O)c2nn(-c3ccc(OC)cc3)nc2n1CC(=O)NC12CC(C(C)C)(C1)C2` [I-145, 2-{5-ethyl-6-[(1S,6S)-5-(5-hydroxy-6-methylpyrimidine-4-carbonyl)-2,5-diazabicyclo[4.2.0]octan-2-yl]-2-(4-methoxyphenyl)-7-oxo-2H,4H,7H-[1,2,3]triazolo[4,5-b]pyridin-4-yl}-N-[3-(propan-2-yl)bicyclo[1.1.1]pentan-1-yl]acetamide] the figure was no more than 5 nM; with `CCc1c(N2CCN(C(=O)c3ncnc(C)c3O)[C@H]3CC[C@@H]32)c(=O)c2nn(-c3ccnc(C(F)(F)F)c3)nc2n1CC(=O)NC12CC(C3CC3)(C1)C2` [I-165, N-{3-cyclopropylbicyclo[1.1.1]pentan-1-yl}-2-{5-ethyl-6-[(1S,6S)-5-(5-hydroxy-6-methylpyrimidine-4-carbonyl)-2,5-diazabicyclo[4.2.0]octan-2-yl]-7-oxo-2-[2-(trifluoromethyl)pyridin-4-yl]-2H,4H,7H-[1,2,3]triazolo[4,5-b]pyridin-4-yl}acetamide], 5 to 50 nM.
In the case of `CCc1c(N2CCN(C(=O)c3c(O)ccc4ncoc34)[C@H]3CC[C@@H]32)c(=O)c2nn(-c3ccnc(OC)c3)nc2n1CC(=O)NC12CC(C(C)C)(C1)C2` [I-136, 2-{5-ethyl-6-[(1S,6S)-5-(6-hydroxy-1,3-benzoxazole-7-carbonyl)-2,5-diazabicyclo[4.2.0]octan-2-yl]-2-(2-methoxypyridin-4-yl)-7-oxo-2H,4H,7H-[1,2,3]triazolo[4,5-b]pyridin-4-yl}-N-[3-(propan-2-yl)bicyclo[1.1.1]pentan-1-yl]acetamide] it was no more than 5 nM.
Turning to `CCc1c(N2CCN(C(=O)c3c(O)c(F)cc4ncoc34)[C@H]3CC[C@@H]32)c(=O)c2nn(C3=CCOCC3)nc2n1CC(=O)NC12CC(C3CC3)(C1)C2` [I-182, N-{3-cyclopropylbicyclo[1.1.1]pentan-1-yl}-2-[2-(3,6-dihydro-2H-pyran-4-yl)-5-ethyl-6-[(1S,6S)-5-(5-fluoro-6-hydroxy-1,3-benzoxazole-7-carbonyl)-2,5-diazabicyclo[4.2.0]octan-2-yl]-7-oxo-2H,4H,7H-[1,2,3]triazolo[4,5-b]pyridin-4-yl]acetamide], the IC50 lay within 5 to 50 nM.
With `CCc1c(N2CCN(C(=O)c3nocc3O)[C@H]3CC[C@@H]32)c(=O)c2nn(C3=CCOCC3)nc2n1CC(=O)NC12CC(C(C)C)(C1)C2` [I-161, 2-[2-(3,6-dihydro-2H-pyran-4-yl)-5-ethyl-6-[(1S,6S)-5-(4-hydroxy-1,2-oxazole-3-carbonyl)-2,5-diazabicyclo[4.2.0]octan-2-yl]-7-oxo-2H,4H,7H-[1,2,3]triazolo[4,5-b]pyridin-4-yl]-N-[3-(propan-2-yl)bicyclo[1.1.1]pentan-1-yl]acetamide] the figure was no more than 5 nM; with `CCc1c(N2CCN(C(=O)c3c(OC)ccc4ncoc34)[C@H]3CC[C@@H]32)c(=O)c2nn(C3=CCOCC3)nc2n1CC(=O)NC12CC(C3CC3)(C1)C2` [I-180, N-{3-cyclopropylbicyclo[1.1.1]pentan-1-yl}-2-[2-(3,6-dihydro-2H-pyran-4-yl)-5-ethyl-6-[(1S,6S)-5-(6-methoxy-1,3-benzoxazole-7-carbonyl)-2,5-diazabicyclo[4.2.0]octan-2-yl]-7-oxo-2H,4H,7H-[1,2,3]triazolo[4,5-b]pyridin-4-yl]acetamide], 5 to 50 nM.
In the case of `CCc1c(N2CCN(C(=O)c3ncnc(C)c3O)CC2)c(=O)c2nn(C3=CCOCC3)nc2n1CC(=O)NC12CC(C(C)C)(C1)C2` [I-59, 2-[2-(3,6-dihydro-2H-pyran-4-yl)-5-ethyl-6-[4-(5-hydroxy-6-methylpyrimidine-4-carbonyl)piperazin-1-yl]-7-oxo-2H,4H,7H-[1,2,3]triazolo[4,5-b]pyridin-4-yl]-N-[3-(propan-2-yl)bicyclo[1.1.1]pentan-1-yl]acetamide] it was 5 to 50 nM; in that of `CCc1c(N2CCN(C(=O)c3ncc4c(c3O)CCO4)CC2)c(=O)n2nc(C3=CCOCC3)nc2n1CC(=O)NC12CC(F)(C1)C2` [I-6, 2-(2-(3,6-dihydro-2H-pyran-4-yl)-5-ethyl-6-(4-(4-hydroxy-2,3-dihydrofuro[2,3-c]pyridine-5-carbonyl)piperazin-1-yl)-7-oxo-[1,2,4]triazolo[1,5-a]pyrimidin-4(7H)-yl)-N-(3-fluorobicyclo[1.1.1]pentan-1-yl)acetamide], greater than 500 nM; in that of `CCc1c(N2CCN(C(=O)c3ncc4c(c3O)CCO4)CC2)c(=O)n2nc(C3=CCOCC3)nc2n1CC(=O)NC12CC(C(F)F)(C1)C2` [I-8, N-(3-(difluoromethyl)bicyclo[1.1.1]pentan-1-yl)-2-(2-(3,6-dihydro-2H-pyran-4-yl)-5-ethyl-6-(4-(4-hydroxy-2,3-dihydrofuro[2,3-c]pyridine-5-carbonyl)piperazin-1-yl)-7-oxo-[1,2,4]triazolo[1,5-a]pyrimidin-4(7H)-yl)acetamide], 100 to 500 nM.
With `CCc1c(N2CCN(C(=O)c3ncnc(C)c3O)[C@H]3CC[C@@H]32)c(=O)c2nn(-c3ccnc(C(F)F)c3)nc2n1CC(=O)NC12CC(C3CC3)(C1)C2` [I-171, N-{3-cyclopropylbicyclo[1.1.1]pentan-1-yl}-2-{2-[2-(difluoromethyl)pyridin-4-yl]-5-ethyl-6-[(1S,6S)-5-(5-hydroxy-6-methylpyrimidine-4-carbonyl)-2,5-diazabicyclo[4.2.0]octan-2-yl]-7-oxo-2H,4H,7H-[1,2,3]triazolo[4,5-b]pyridin-4-yl}acetamide] the figure was 5 to 50 nM.

(Values after US20250206738A1, “WRN INHIBITORS” (Nimbus Wadjet, Inc., priority 2023, published 2025).)
